What was measured:
[1] = system: EGFR (ErbB1) in A431 human epidermoid carcinoma cells; assay: Washout experiment for EGFR activity in A431 cells; type: cell-based; conditions: for enzyme inhibition after washout: A431 cells, 1 μM for 1 hr, EGF stimulation
Description: A431 human epidermoid carcinoma cells were grown in 6-well plates to 90% confluence and then incubated in serum-free media for 18 hr. Duplicate sets of cells were treated with 1 μM designated compound for 1 hr. One set of cells was then stimulated with 100 ng/ml EGF for 5 min, and extracts were made as described. The other set of cells was washed free of the compound with warmed compound-free medium, incubated for 2 hr, washed again, incubated another 2 hr, washed again, and then incubated another 2 hr washed again and incubated for additional 2 hr and then stimulated with EGF.

EGFR (WT) = target: T1, EGFR (WT) (Homo sapiens, UniProt P00533); assay: Omnia continuous-read kinase assay, EGFR (WT); type: biochemical; conditions: read-out: EGFR inhibtion
T1 construct: purchased Invitrogen PV3872
Method in brief: (§1)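 Enzyme pre-incubated 30 min at 27 °C with compound, then ATP/Y12-Sox peptide added; fluorescence (ex360/em485) read continuously 60 min in 20 mM Tris pH 7.5, 5 mM MgCl2, 0.2 mM DTT. WT: 5 nM enzyme, […]; T790M/L858R: 3 nM enzyme, […]. IC50 from initial velocities, variable-slope fit.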

EGFR (T790M/L858R) = target: T2, EGFR (T790M/L858R) (Homo sapiens, UniProt P00533, L858R/T790M); assay: Omnia continuous-read kinase assay, EGFR (T790M/L858R); type: biochemical; conditions: read-out: EGFR (T790M/L858R) inhibiton
T2 construct: purchased BPS Bioscience 40350
Method in brief: as §1

ErbB1 = ErbB1 (Homo sapiens, UniProt P00533); assay: Z'-LYTE biochemical assay, ErbB1 kinase inhibition; conditions: for inhibition at 0.01 µM: @ 10 nM; for inhibition at 0.1 µM: @ 100 nM
Method in brief: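 Fluorescence-based coupled-enzyme Z′-LYTE format: kinase phosphorylation of a peptide substrate is read by differential protease cleavage of phosphorylated versus non-phosphorylated peptide.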

ErbB2 = ErbB2 (Homo sapiens, UniProt P04626); assay: Z'-LYTE biochemical assay, ErbB2 kinase inhibition; conditions: @ 1 μM
Description: (§2) Compounds of the present invention were assayed as inhibitors of one or more of ErbB1, ErbB2, and/or ErbB4 in a manner substantially similar to the method described by Invitrogen Corp (Invitrogen Corporation, 1600 Faraday Avenue, Carlsbad, Calif., CA; http://www.invitrogen.com/downloads/Z-LYTE_Brochure—1205.pdf) using the Z′-LYTE™ biochemical assay procedure or similar biochemical assay. The Z′-LYTE™ biochemical assay employs a fluorescence-based, coupled-enzyme format and is based on the differential sensitivity of phosphorylated and non-phosphorylated peptides to proteolytic cleavage.

ErbB4 = ErbB4 (Homo sapiens, UniProt Q15303); assay: Z'-LYTE biochemical assay, ErbB4 kinase inhibition; conditions: @ 1 μM
Description: as §2

BTK = BTK (Homo sapiens, UniProt Q06187); assay: Omnia assay for potency against BTK; type: biochemical; conditions: read-out: BTK Inhibition
Method in brief: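 BTK (5 nM) was pre-incubated 30 min at 27° C with serially diluted compounds in Tris pH 7.5/MgCl2 buffer, then started with […] and Y5-Sox peptide 10 mM (ATP KMapp ~36 mM). Fluorescence (ex360/em485) was read continuously over 60 min. IC50 came from initial velocities using a variable-slope fit.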

[2] = system: BTK signaling in Ramos cells; assay: BTK Ramos cellular assay (PLCγ2 phosphorylation); type: cell-based; conditions: Homo sapiens; Ramos cells, PLCγ2 phosphorylation; read-out: BTK Inhibition
Description: Compounds 1-13 and (I-52) were assayed in Ramos human Burkitt lymphoma cells. Ramos cells were grown in suspension in T225 flasks, spun down, resuspended in 50 mls serum-free media and incubated for 1 hour. Compound was added to Ramos cells in serum free media to a final concentration of 1, 0.1, 0.01, or 0.001 μM. Ramos cells were incubated with compound for 1 hour, washed again and resuspended in 100 ul serum-free media. Cells were then stimulated with 1 μg of goat F(ab′)2 Anti-Human IgM and incubated on ice for 10 minutes to activate B cell receptor signaling pathways. After 10 minutes, the cells were washed once with PBS and then lysed on ice with Invitrogen Cell Extraction buffer. 16 μg total protein from lysates was loaded on gels and blots were probed for phosphorylation of the BTK substrate PLCγ2. […] Additional dose response inhibition of BTK signaling with I-13 is depicted in FIG. 9.

JAK3 = target: T3, JAK3 (Homo sapiens, UniProt P52333); assay: Omnia assay for potency against JAK3; type: biochemical; conditions: read-out: JAK3 Inhibition
T3 sequence (P52333 1-1124): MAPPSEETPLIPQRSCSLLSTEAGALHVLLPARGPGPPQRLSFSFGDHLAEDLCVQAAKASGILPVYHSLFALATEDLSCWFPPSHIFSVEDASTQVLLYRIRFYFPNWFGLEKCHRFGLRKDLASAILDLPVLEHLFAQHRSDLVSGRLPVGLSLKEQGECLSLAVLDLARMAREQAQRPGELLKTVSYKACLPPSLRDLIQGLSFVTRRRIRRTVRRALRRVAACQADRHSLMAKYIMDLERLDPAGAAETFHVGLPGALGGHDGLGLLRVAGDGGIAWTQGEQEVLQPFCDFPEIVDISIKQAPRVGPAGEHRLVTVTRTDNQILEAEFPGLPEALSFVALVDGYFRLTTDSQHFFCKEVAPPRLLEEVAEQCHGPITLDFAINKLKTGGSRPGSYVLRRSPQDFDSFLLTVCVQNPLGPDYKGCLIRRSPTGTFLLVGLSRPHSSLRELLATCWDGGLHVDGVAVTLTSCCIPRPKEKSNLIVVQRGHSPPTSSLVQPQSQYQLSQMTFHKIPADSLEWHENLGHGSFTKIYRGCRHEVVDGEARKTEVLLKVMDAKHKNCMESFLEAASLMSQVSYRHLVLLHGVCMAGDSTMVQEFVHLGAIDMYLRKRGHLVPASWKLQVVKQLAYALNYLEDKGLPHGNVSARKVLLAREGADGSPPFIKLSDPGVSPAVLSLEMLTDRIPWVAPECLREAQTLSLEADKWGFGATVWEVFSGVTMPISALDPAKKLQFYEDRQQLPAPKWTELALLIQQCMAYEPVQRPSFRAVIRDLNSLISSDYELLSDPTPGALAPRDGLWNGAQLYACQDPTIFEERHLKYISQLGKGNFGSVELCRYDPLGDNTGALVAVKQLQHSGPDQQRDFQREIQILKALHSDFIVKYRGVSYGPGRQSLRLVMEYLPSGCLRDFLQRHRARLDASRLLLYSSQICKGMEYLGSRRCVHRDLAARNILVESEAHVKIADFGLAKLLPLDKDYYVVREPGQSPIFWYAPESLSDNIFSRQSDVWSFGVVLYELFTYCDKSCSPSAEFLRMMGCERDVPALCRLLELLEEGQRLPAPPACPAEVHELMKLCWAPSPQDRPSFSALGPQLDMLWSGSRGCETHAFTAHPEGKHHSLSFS
Method in brief: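 Continuous-read Omnia kinase assay with 5 nM JAK3, 5 μM ATP (near apparent Km) and 5 μM Y12-Sox peptide in Tris pH 7.5/MgCl2 buffer; enzyme pre-incubated with compound 30 min at 27 °C. Fluorescence (ex360/em485) read over 60 min; initial velocities fitted against inhibitor concentration to give IC50.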

BTK in Ramos cells = assay: Washout experiment with Ramos cells for BTK activity; type: cell-based, human; conditions: Ramos washout assay, 100 nM compound for 1 hour
Description: Ramos cells were serum starved for one hour in RPMI media+1% glutamine at 37° C. After starvation, Ramos cells were treated with 100 nM compound diluted in serum free RPMI media for 1 hour. After compound treatment, the media was removed and cells were washed with compound-free media. Subsequently, Ramos cells were washed every 2 hours and resuspended in fresh compound-free media. Cells were collected at specified timepoints, treated with 1 ug anti-human IgM (Southern Biotech cat #2022-01) for 10 minutes on ice to induce BCR signaling and then washed in PBS. Ramos cells were then lysed in Cell Extraction Buffer (Invitrogen FNN0011) supplemented with Roche complete protease inhibitor tablets (Roche 11697498001) and phosphatase inhibitors (Roche 04 906 837 001) and 18 ug total protein lysate was loaded in each lane. Inhibition of BTK kinase activity was assayed by measuring its substrate (PLCγ2) phosphorylation by western blot with phospho-specific antibodies from Cell Signaling Technologies cat#3871. FIG. 10 depicts the results of compound I-13 in the washout experiment at 0 hour, 4 hour, 6 hour, and 8 hour time points.

ErbB4, sequence (Q15303 26-1308): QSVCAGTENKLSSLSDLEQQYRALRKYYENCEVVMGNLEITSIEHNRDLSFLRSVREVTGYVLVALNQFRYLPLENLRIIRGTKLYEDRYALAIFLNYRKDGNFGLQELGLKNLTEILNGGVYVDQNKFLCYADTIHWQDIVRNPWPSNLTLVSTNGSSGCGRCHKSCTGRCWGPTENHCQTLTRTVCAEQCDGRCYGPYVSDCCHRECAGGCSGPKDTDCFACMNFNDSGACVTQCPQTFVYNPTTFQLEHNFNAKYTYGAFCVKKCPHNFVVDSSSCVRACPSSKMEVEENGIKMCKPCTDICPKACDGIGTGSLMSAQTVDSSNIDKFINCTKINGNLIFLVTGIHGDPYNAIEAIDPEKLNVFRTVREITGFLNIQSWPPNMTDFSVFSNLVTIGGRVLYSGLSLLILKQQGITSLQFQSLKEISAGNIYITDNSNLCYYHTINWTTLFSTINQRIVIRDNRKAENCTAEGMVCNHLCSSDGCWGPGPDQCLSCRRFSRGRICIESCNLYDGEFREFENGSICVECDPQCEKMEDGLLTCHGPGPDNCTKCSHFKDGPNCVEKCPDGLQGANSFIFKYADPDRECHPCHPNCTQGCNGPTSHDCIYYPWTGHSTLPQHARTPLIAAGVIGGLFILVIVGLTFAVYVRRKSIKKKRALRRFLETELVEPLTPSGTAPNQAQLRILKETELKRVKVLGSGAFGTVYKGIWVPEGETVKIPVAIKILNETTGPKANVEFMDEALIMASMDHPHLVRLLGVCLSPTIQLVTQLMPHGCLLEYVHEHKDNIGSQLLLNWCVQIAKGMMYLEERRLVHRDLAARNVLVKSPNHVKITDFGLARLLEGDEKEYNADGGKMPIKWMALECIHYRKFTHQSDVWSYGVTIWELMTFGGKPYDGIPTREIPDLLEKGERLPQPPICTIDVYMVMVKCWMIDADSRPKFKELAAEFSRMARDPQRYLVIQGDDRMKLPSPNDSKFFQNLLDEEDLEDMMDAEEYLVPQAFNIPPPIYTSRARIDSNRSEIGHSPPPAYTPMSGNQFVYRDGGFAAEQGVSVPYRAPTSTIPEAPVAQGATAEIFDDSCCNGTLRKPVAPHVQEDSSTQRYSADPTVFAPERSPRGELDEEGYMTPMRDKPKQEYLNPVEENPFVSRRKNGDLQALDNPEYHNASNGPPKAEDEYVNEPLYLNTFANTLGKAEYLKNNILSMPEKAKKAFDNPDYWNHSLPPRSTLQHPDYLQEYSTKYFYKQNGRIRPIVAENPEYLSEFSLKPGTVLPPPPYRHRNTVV
T2 sequence (P00533 25-1210 T790M/L858R): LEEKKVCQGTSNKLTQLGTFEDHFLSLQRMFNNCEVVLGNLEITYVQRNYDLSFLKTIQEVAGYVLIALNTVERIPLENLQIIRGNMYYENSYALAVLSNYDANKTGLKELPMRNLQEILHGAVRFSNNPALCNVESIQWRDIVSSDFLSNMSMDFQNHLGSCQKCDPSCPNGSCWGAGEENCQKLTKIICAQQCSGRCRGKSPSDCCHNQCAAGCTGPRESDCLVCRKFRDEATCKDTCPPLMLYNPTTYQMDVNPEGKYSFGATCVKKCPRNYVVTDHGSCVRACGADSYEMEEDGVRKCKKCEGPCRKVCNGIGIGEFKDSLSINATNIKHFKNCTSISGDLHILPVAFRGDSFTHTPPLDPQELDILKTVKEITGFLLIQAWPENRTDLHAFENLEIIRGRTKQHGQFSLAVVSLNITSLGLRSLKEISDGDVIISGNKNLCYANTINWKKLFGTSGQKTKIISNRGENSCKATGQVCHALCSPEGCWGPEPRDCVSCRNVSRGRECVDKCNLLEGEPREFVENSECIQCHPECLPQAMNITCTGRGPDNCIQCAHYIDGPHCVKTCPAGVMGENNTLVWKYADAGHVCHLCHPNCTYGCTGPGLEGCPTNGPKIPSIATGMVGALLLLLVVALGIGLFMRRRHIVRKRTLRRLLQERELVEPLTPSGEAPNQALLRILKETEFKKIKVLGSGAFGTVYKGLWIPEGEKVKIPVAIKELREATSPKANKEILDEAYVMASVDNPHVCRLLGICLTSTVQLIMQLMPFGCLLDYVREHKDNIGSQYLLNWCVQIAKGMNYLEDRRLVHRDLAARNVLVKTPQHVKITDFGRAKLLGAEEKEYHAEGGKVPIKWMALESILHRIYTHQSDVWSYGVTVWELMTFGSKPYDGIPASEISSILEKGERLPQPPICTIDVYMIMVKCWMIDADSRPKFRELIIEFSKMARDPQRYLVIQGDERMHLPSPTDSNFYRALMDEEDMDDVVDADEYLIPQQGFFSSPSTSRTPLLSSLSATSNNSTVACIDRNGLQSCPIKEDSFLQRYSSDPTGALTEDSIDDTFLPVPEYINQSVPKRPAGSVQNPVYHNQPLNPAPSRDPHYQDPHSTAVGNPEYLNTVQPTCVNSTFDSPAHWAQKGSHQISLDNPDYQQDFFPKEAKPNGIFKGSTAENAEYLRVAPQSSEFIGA
BTK, sequence (Q06187 whole entry): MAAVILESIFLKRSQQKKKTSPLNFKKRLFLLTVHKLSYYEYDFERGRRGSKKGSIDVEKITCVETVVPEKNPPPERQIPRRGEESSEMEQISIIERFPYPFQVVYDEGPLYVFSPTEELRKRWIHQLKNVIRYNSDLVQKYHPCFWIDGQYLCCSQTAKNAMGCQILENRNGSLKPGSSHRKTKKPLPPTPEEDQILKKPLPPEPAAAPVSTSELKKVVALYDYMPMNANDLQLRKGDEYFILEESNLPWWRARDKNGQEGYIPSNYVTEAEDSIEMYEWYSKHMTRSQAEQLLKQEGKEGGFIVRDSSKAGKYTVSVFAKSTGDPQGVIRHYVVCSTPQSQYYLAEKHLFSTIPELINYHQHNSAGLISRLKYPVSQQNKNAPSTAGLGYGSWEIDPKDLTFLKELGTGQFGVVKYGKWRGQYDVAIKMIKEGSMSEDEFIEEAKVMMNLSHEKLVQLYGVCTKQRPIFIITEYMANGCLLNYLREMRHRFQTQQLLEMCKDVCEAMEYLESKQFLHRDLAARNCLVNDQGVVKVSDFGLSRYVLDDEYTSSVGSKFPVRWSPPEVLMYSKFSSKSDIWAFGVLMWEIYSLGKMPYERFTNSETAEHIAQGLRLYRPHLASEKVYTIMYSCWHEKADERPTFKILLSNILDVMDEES
T1 sequence (P00533 25-1210): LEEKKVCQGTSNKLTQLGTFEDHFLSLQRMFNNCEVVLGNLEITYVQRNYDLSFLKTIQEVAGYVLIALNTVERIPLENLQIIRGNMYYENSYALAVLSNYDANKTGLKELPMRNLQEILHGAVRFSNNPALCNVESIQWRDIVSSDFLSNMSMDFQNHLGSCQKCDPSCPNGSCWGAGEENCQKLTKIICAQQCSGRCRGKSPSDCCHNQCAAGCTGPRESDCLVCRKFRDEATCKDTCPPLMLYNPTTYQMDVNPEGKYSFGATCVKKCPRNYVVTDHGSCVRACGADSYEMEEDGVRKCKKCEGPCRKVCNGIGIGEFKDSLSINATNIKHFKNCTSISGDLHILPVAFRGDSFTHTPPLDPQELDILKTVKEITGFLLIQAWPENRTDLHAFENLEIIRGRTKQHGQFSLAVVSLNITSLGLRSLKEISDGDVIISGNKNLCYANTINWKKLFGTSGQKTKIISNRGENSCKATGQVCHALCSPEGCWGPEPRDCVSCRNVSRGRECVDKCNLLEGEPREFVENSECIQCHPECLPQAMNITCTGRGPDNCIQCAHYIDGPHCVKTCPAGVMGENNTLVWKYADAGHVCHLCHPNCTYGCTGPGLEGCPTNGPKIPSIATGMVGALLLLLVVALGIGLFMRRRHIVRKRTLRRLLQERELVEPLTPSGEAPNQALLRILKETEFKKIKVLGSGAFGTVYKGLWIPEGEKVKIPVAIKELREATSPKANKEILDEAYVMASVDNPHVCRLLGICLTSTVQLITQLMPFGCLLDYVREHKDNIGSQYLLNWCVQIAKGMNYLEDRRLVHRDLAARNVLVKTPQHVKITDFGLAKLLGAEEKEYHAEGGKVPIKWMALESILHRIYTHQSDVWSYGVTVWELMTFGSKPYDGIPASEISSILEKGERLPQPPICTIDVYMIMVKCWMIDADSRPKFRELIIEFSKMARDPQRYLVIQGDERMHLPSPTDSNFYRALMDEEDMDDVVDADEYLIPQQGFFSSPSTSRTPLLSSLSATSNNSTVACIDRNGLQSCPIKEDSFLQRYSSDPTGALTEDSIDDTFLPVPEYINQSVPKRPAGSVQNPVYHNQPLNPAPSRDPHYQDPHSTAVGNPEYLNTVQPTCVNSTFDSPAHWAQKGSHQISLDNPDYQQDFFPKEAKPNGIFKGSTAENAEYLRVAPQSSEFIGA

| SMILES | IC50 (EGFR (WT)) | IC50 (EGFR (T790M/L858R)) | inhibition at 0.01 µM (ErbB1) | inhibition at 1 µM (ErbB2) | inhibition at 1 µM (ErbB4) | IC50 (BTK) | IC50 [2] | IC50 (JAK3) | inhibition at 0.1 µM (ErbB1) | inhibition at 1 µM (ErbB1) | enzyme inhibition after washout [1] | BTK Inhibition Type (BTK in Ramos cells) | type of binding to ErbB1 (irreversible / reversible) ([1]; washout experiment, FIG. 2) |
| --- | --- | --- | --- | --- | --- | --- | --- | --- | --- | --- | --- | --- | --- |
| CCC(=O)Nc1cccc(Nc2cc(Nc3cccc(Br)c3)ncn2)c1 [I^R-3, N-{3-[6-(3-bromophenylamino)-pyrimidin-4-ylamino]phenyl}-propionamide, reference compound] | – | – | – | – | – | – | – | – | – | – | washed away | – | – |
| C=CS(=O)(=O)Nc1cccc(Nc2cc(Nc3cccc(C)c3)ncn2)c1 [I-5, N-{3-[6-(3-methylphenylamino)-pyrimidin-4-ylamino]phenyl}-ethenesulfonamide] | ≤ 10 nM | ≤ 10 nM | 100% | 86% | 95% | ≤ 10 nM | 100 to 1000 nM | ≤ 10 nM | – | – | – | – | – |
| C=CS(=O)(=O)Nc1cccc(Nc2cc(Nc3ccc(OCc4cccc(F)c4)c(Cl)c3)ncn2)c1 [I-7, N-{3-[6-(3-chloro-4-(3-fluorophenyl)methoxy-phenylamino)-pyrimidin-4-ylamino]phenyl}-ethenesulfonamide] | ≤ 10 nM | 10 to 100 nM | 53% | 89% | 100% | 10 to 100 nM | – | 100 to 1000 nM | 100% | – | – | – | – |
| Cc1cccc(Nc2cc(Nc3cccc(NC(=O)/C=C/CN(C)C)c3)ncn2)c1 [I-17, (E)-N-{3-[6-(3-methylphenylamino)-pyrimidin-4-ylamino]phenyl}-4-dimethylamino-2-butenamide] | ≤ 10 nM | 10 to 100 nM | – | 89% | 94% | ≤ 10 nM | ≥ 1000 nM | 10 to 100 nM | – | 95% | – | – | – |
| C=CS(=O)(=O)Nc1cccc(Nc2cc(Nc3ccc(F)c(Cl)c3)ncn2)c1 [I-3, N-{3-[6-(3-chloro-4-fluorophenylamino)-pyrimidin-4-ylamino]phenyl}-ethenesulfonamide] | ≤ 10 nM | ≤ 10 nM | 56% | 89% | 95% | 10 to 100 nM | – | ≤ 10 nM | 96% | – | – | – | – |

Continued, in another order:

| IC50 (EGFR (WT)) | IC50 (EGFR (T790M/L858R)) | inhibition at 0.01 µM (ErbB1) | inhibition at 1 µM (ErbB2) | inhibition at 1 µM (ErbB4) | IC50 (BTK) | IC50 [2] | IC50 (JAK3) | inhibition at 0.1 µM (ErbB1) | inhibition at 1 µM (ErbB1) | SMILES | enzyme inhibition after washout [1] | BTK Inhibition Type (BTK in Ramos cells) | type of binding to ErbB1 (irreversible / reversible) ([1]; washout experiment, FIG. 2) |
| --- | --- | --- | --- | --- | --- | --- | --- | --- | --- | --- | --- | --- | --- |
| ≤ 10 nM | – | – | – | – | ≤ 10 nM | ≤ 10 nM | 10 to 100 nM | – | – | CN(C)C/C=C/C(=O)Nc1cccc(Nc2cc(Oc3ccc(Oc4ccccc4)cc3)ncn2)n1 [I-82] | – | irreversible | – |
| ≤ 10 nM | ≤ 10 nM | – | 98% | 97% | 10 to 100 nM | – | 100 to 1000 nM | – | 96% | CN(C)C/C=C/C(=O)Nc1cccc(Nc2cc(Nc3ccc(OCc4ccccn4)c(Cl)c3)ncn2)c1 [I-19, (E)-N-(3-(6-(3-chloro-4-(pyridin-2-ylmethoxy)phenylamino)-pyrmidin-4-ylamino)phenyl)-4-(dimethylamino)but-2-enamide] | – | – | – |
| ≤ 10 nM | – | – | – | – | 1000 to 10000 nM | – | ≥ 10000 nM | – | – | C=CC(=O)Nc1ccc(Nc2cc(Nc3cccc(Br)c3)ncn2)cc1 [I-93, N-(4-[6-(3-bromophenylamino)-pyrimidin-4-ylamino]phenyl)-2-propenamide] | washed away | – | reversibly binds to ErbB1 |

From US9296704B2, “Substituted pyrimidines as protein kinase inhibitors” (CELGENE AVILOMICS RESEARCH, INC., priority 2007, dated 2016)
